Experimental findings from US20060030719A1, “Cis-3,5-disubstituted-dihydro-furan-2-ones and the preparation and use thereof” (priority 2004, published 2006) are described below.

SMILES strings stand for the structures.

`C[C@@H]1C[C@H](CC2CCCCC2)C(=O)O1` (relative stereo) [Example 20, cis-3-cyclohexylmethyl-5-methyl-dihydro-furan-2-one] displayed a melting point of 60 to 62 °C.

By melting point is commonly meant the temperature, or range, at which the solid turns liquid.
